Results on one compound are retold here after patent EP4772520A1, “NOVEL PRODRUG-TYPE ANTICANCER AGENT TARGETING CANCER-SPECIFIC ENZYME ACTIVITY” (priority 2023, dated 2025).

Like-named read-outs stand apart in the source and are kept apart here.

In data set [1] the target is T1, Human β-Galactosidase 1 (GLB1) (Homo sapiens, UniProt P16278).
T1 sequence (P16278 29-677): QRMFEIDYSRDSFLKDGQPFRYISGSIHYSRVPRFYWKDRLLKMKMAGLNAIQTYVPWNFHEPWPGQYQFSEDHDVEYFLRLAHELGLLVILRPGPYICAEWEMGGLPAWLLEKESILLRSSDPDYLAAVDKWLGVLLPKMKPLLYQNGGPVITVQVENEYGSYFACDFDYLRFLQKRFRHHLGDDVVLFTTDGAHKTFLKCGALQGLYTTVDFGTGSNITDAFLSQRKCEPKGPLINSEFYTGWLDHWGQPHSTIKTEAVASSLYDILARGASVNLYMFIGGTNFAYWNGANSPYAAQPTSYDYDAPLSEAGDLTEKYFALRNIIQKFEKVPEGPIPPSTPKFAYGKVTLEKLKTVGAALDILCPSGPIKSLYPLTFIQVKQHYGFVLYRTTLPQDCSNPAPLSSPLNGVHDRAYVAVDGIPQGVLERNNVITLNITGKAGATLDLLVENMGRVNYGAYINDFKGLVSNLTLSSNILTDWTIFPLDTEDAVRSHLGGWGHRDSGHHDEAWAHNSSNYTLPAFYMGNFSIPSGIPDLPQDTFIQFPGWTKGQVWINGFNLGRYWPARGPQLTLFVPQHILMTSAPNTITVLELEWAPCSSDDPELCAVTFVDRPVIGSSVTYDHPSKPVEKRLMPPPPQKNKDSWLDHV
Put plainly: Evaluation of drug release using LC-MS. Type of data set: biochemical. Conditions: GLB1 purified enzyme added. The text has this: Reactivity with Human β-Galactosidase 1 (GLB1), which is an assumed target enzyme of SN38-βGal, was confirmed using LC-MS.

Data set [2] in a line: Kinetic test in intraperitoneal administration. The class given is in vivo, Mice. Conditions: 30 mg/kg i.p. The method, then:
A specific procedure of the pharmacokinetics test is shown below. • (1) SN38-βGal (30 mg/kg) was dissolved in 100 µL of PBS and administered by i.p. • (2) 150 to 200 µL of anesthesia (in the case of a mixture of three types of Domitor + Betorphal + Mitazolam) was intraperitoneally administered 5 minutes before dissection at each time. • (3) The inside of a syringe was coated with sodium heparin, and at each evaluation time, the mouse was quickly stuck to the dissecting pad, and the abdomen was opened without bleeding, and whole blood was collected from the right ventricle with a 23 G needle. 100 µM β-Galactosidase inhibitor was added to whole blood. • (4) After whole blood collection, brain, heart, lung, liver, pancreas, spleen, kidney, stomach, small intestine, large intestine, muscle, and fat were taken out. As the muscle, a muscle near the thigh was resected. The weight of each organ was measured. • (5) Whole blood was centrifuged at 1200 G for 15 min at 4°C, and 200 µL of supernatant was collected. 800 µL of a solution of MeOH/MeCN = 1:1 (containing Rhodamine 123 = 25 µM as an internal standard) was added thereto, and the mixture was allowed to stand for 10 minutes. • (6) After standing, centrifugation was performed at 1700 G for 15 min at 4°C, and the supernatant was collected. About 80 µL of the mixture was fractionated, loaded on a Cosmo Spin Filter G (0.2 um), centrifuged at 12000 G for 5 min at 4°C, and filtered to collect a sample. • (7) Each resected organ was finely cut and put into a tube of Lysing Matrix D, 1000 µL of Lysis Buffer (added with 100 µM β-Galactosidase inhibitor) was added thereto, and the mixture was crushed with a shaker. • (8) The supernatant was collected from the tube of Lysing Matrix, and then centrifuged at 10,000 G for 5 min at 4°C to collect the supernatant to obtain a lysate solution. • (9) To 100 µL of the organ lysate solution, 200 µL of MeOH/MeCN = 1:1 (containing 30 µM of Rhodamine 123 as an internal standard) was added, and the mixture was allowed to stand for 10 minutes. • (10) Centrifugation was performed at 1700 G for 15min at 4°C to collect 200 µL of the supernatant. The supernatant was loaded on a Cosmo Spin Filter G (0.2 µm) and centrifuged at 12000 G for 5 min at 4°C to collect a sample. • (11) 50 µL of purified water and 50 µL of a filtered plasma sample or organ lysate sample were mixed, 10 µL of the mixture was injected into HPLC, and data of the area under the curve of the PDA spectrum at 380 nm (derived from SN 38) and 490 nm (derived from Rhodamine 123) were acquired, and then the respective numerical values were calculated from the volume for blood and the weight for organs by one inspection amount of Rhodamine 123.
A specific procedure of the intraperitoneal concentration evaluation test is shown below. • (1) Intraperitoneal administration (i.p.) was performed on an evaluation amount of the drug. • (2) 2.0 mL of PBS was administered by i.p. at each evaluation time, and the abdomen was immediately massaged and sacrificed so that the drug could be collected as much as possible on the PBS side after administration. A small hole was made in the abdomen, and PBS in the abdominal cavity was quickly collected with a 1.0 mL syringe in a pushing manner, and this solution was used as an peritoneal washing solution. • (3) To 200 µL of the collected peritoneal washing solution, 800 µL (containing Rhodamine 123 = 25 µM) of 800 µL MeCN/MeOH = 1:1 was added to precipitate proteins. The supernatant was collected by centrifugation at 1700 G for 5 min at 4°C. • (4) 80 µL of the recovered supernatant was loaded on a cosmo spin filter G and centrifuged at 12000 G for 5 min at 4°C, and 50 µL of purified water was added to 50 µL of the recovered material to adjust the total amount to 100 µL to prepare a sample. • (5) The concentration of SN38-βGal was measured by HPLC, and the concentration of the recovered peritoneal washing solution was calculated.

In general, AUC(0-inf) refers to the area under the concentration-time curve extrapolated to infinity. For `CCc1c2c(nc3ccc(O[C@@H]4O[C@H](CO)[C@H](O)[C@H](O)[C@H]4O)cc13)-c1cc3c(c(=O)n1C2)COC(=O)[C@]3(O)CC` [SN38-βGal], the “release of SN38” value in data set [1] is “the release of SN38 showing an anticancer effect was confirmed”. Further, the “time of highest blood concentration” value in data set [2] is given as “around 10 minutes”. Moreover, the organ distribution result in data set [2] (10 minutes to 60 minutes after administration) is “the absorption from the small intestine was large, and only a slight distribution was confirmed in the brain”. Besides, the intraperitoneal concentration result in data set [2] (at 30 minutes) is on record as “about 17%”. Further, the half-life was about 30 min in data set [2] (mouse, blood, ip, read-out: blood half-life) and 11.8 min in data set [2] (mouse, in vivo, ip, read-out: t1/2 (converted)). The compound further yielded an AUC(0-inf) in data set [2] (mouse, in vivo, ip) of 15900 ng·h/mL. The AUC(0-t) at 1 h in data set [2] (mouse, in vivo, ip, read-out: AUC0-1h) was found to be 15400 ng·h/mL.
